As usually defined, the EC50 is the midpoint of the concentration-response curve.

Five compounds from article PMC11740726 (PNAS Nexus, 2025) can be followed below.

Where “and” joins values, the source holds several entries; their conditions need not be identical. Identical values can stand only once. Like-named read-outs stand apart in the source and are kept apart here.

The subject of experiment [1] is SARS-CoV-2 Omicron XBB.1.5. In words: microbe, parasite or virus in culture. In kind it is cell-based. Conditions: Severe acute respiratory syndrome coronavirus 2, read-out: Against SARS-CoV-2 variants EC50, Omicron XBB.1.5.
The test system of experiment [2] is SARS-CoV-2 Omicron XBB. In words: microbe, parasite or virus in culture. Type of experiment: cell-based. Conditions: Severe acute respiratory syndrome coronavirus 2, read-out: Against SARS-CoV-2 variants EC50, Omicron XBB.
Experiment [3] concerns SARS-CoV-2^BQ.1.1. In words: microbe, parasite or virus in culture. Type of experiment: cell-based. The conditions noted are these: Severe acute respiratory syndrome coronavirus 2, read-out: Against SARS-CoV-2 variants EC50, Omicron BQ.1.1.
Experiment [4] relates to six various Omicron variants (BA.5, BA.2.75, BQ.1.1, XBB, XBB.1.5, and EG.5.1). The experiment can be described thus: microbe, parasite or virus in culture. Type of experiment: cell-based, SARS-CoV-2. The conditions noted are these: Severe acute respiratory syndrome coronavirus 2, read-out: EC50 values ranging over all six Omicron variants.
Experiment [5] has as its system rgSARS-CoV-2^E166V. In kind it is cell-based, SARS-CoV-2. The conditions noted are these: read-out: EC50, rgSARS-CoV-2^E166V, VeroE6 +2μM CP-100356.
Experiment [6] relates to SARS-CoV-2^E166V-P14. In kind it is cell-based. Conditions: read-out: EC50, SARS-CoV-2^E166V-P14, HeLa^hACE2-TMPRSS2.
The test system of experiment [7] is SARS-CoV-2 Omicron BA.5. The experiment can be described thus: microbe, parasite or virus in culture. In kind it is cell-based. Conditions: Severe acute respiratory syndrome coronavirus 2, read-out: Against SARS-CoV-2 variants EC50, Omicron BA.5.
Experiment [8] concerns SARS-CoV-2 Omicron EG.5.1. The experiment can be described thus: microbe, parasite or virus in culture. Type of experiment: cell-based. Conditions: Severe acute respiratory syndrome coronavirus 2, read-out: Against SARS-CoV-2 variants EC50, Omicron EG.5.1.
Experiment [9] relates to SARS-CoV-2 Omicron BA.2.75. In words: microbe, parasite or virus in culture. Type of experiment: cell-based. Conditions: Severe acute respiratory syndrome coronavirus 2, read-out: Against SARS-CoV-2 variants EC50, Omicron BA.2.75.
The test system of experiment [10] is rgSARS-CoV-2^WT. In words: microbe, parasite or virus in culture. Type of experiment: cell-based. Conditions: Severe acute respiratory syndrome coronavirus 2, Vero C1008, read-out: EC50, rgSARS-CoV-2^WT, VeroE6 +2μM CP-100356.
The test system of experiment [11] is SARS-CoV-2^E166V-P14. Type of experiment: cell-based. The conditions noted are these: read-out: EC50, SARS-CoV-2^E166V-P14, VeroE6 +2μM CP-100356.

Regarding `CC(C)(C)[C@H](NC(=O)C(F)(F)F)C(=O)N1C[C@H]2[C@@H]([C@H]1C(=O)N[C@@H](C[C@@H]1CCNC1=O)C(=O)c1nc3cc(F)ccc3s1)C2(C)C` [TKB272], the EC50 in experiment [1] was 5 ± 2 nM; in experiment [2], 3 ± 1 nM; in [3], 3 ± 1 nM; in [4], 3 to 8 nM; in [5], 22 nM; in experiment [6], 51.3 nM and 51 nM. The EC50 worked out at 8 ± 1 nM in experiment [7], 7 ± 1 nM in [8], 6 ± 3 nM in experiment [9] and 3 nM in experiment [10].
Regarding `CC(C)C(=O)OC[C@H]1O[C@@H](n2ccc(NO)nc2=O)[C@H](O)[C@@H]1O` [molnupiravir, reference compound], the EC50 in experiment [11] came out at 750 nM.
On to `CC(C)(C)[C@H](NC(=O)C(F)(F)F)C(=O)N1C[C@H]2[C@@H]([C@H]1C(=O)N[C@H](C#N)C[C@@H]1CCNC1=O)C2(C)C` [Nirmatrelvir, reference compound], for which the EC50 was 210 ± 280 nM in [1]; 50 ± 20 nM in experiment [3]; 20 to 750 nM in experiment [4]; 1300 nM in [5]; 1420 nM in experiment [6]; 750 ± 220 nM in experiment [7]. Further, the EC50 in experiment [8] came out at 130 ± 20 nM; in [9] it was 300 ± 220 nM; in experiment [10] it was 26 ± 5 nM.
Regarding `CC(C)(C)[C@H](NC(=O)C(F)(F)F)C(=O)N1C[C@H]2[C@@H]([C@H]1C(=O)N[C@@H](C[C@@H]1CCNC1=O)C(=O)c1nc3c(F)cccc3s1)C2(C)C` [TKB245], the EC50 is 35 ± 18 nM in experiment [1]; 6 ± 3 nM in experiment [2]; 6 to 38 nM in experiment [4]; 23 ± 9 nM in [7]; 9 ± 1 nM in experiment [8]; 27 ± 3 nM in experiment [9].
For the compound `Cn1cnc(Cn2c(=O)[nH]/c(=N\c3cc4cn(C)nc4cc3Cl)n(Cc3cc(F)c(F)cc3F)c2=O)n1` [Ensitrelvir, reference compound], the EC50 was 220 ± 90 nM in [1]; 60 ± 20 nM in [2]; 70 ± 20 nM in [3]; 60 to 220 nM in experiment [4]; 200 ± 40 nM in experiment [7]; 210 ± 90 nM in [8]. The concentration for a half-maximal effect (EC50) in [9] is 140 ± 60 nM; in experiment [11], 540 nM.
